In test [1] the target is c-Cbl (residues 47-435) (Homo sapiens (Human), UniProt P22681). Nature of the test: c-Cbl SPR assay. The class given is binding. The note with it: 20° C. As for the experimental part:
(§1) Affinity of binding to Cbl-b and c-Cbl for compounds described herein was assessed by surface plasmon resonance (SPR) according to the following protocol.
(§2) A surface capture range of 1300-1500 RU of protein was used for both isoforms.
(§3) For SPR measurements, 6 concentrations with 2 fold serial dilution were measured with blanks flanking each series for double referencing. […] SPR sensorgrams were recorded in multi-cycle kinetics format, with a contact time of 60 seconds and a flow rate of 40 μl/min, the dissociation time was varied between 120-1200 seconds aiming for 4-5 half-lives of the measured interaction.
(§4) Kinetic and affinity parameters were extracted from the multicycle kinetics data fitting to a 1:1 binding model using the Biacore™ Incyte evaluation software (Cytiva).
(§5) Chaser assay utilize a single cycle kinetics SPR experiment with a contact time of 120 seconds, a flow rate of 50 μl/min and a dissociation time of 450 seconds. Single cycle kinetics titration utilized an initial blank injection and 5 concentrations with 2 fold serial dilution with a maximum concentration of 500 nM, blanked to a preceding 6 point blank single cycle kinetics injection for double referencing.
(§6) The kd is measured independently by determining the percentage unoccupied compound binding site over time by measuring the binding of a chaser compound measured by SPR.
(§7) Chaser binding was measured by a multicycle kinetics SPR experiment using a contact time of 20 seconds, a flow rate of 30 μl/min, and a dissociation time of 120 seconds. […] The % compound bound at a given time was determined by comparison to a single injection of chaser preceding the single cycle kinetics titration defined below. % Compound Bound=(1−(RUT/RUT0))*100
(§8) The % compound bound is plotted against time in seconds and fit to a single exponential, where the exponent represents the kd of the compound-protein complex. The single cycle kinetics experiment of the compound is then fit with a fixed kd determined using the chaser.
For orientation: SPR reads the build-up and loss of mass on a sensor chip optically.

Test [2] deals with Human Cbl-b (residues 40-426) (Homo sapiens (Human), UniProt Q13191). Nature of the test: Cbl-b SPR assay. The note with it: for Fold of selectivity: C-cbl SPR Kd vs Cbl-b SPR Kd; for Kd: SPR, 20° C. It is filed as binding. On the procedure: as §1, §2, §3, §4, §5, §6, §7, §8
Sequence of Human Cbl-b (residues 40-426) (Q13191 40-426): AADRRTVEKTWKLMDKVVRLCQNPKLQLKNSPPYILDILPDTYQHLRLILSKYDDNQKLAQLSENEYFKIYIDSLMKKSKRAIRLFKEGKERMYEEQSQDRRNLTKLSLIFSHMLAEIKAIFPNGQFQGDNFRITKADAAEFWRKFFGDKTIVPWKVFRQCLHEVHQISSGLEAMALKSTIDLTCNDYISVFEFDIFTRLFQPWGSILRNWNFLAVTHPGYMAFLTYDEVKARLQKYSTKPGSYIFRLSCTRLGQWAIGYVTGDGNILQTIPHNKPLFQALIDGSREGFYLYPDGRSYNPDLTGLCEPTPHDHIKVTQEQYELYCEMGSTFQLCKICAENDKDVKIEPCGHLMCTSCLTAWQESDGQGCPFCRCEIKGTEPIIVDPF
In test [3] the target is Cbl-b (Homo sapiens (Human), UniProt Q13191). Nature of the test: Cbl-b LCK Ub TR-FRET assay (Cbl-b Lck HTRF). It is filed as biochemical. The note with it: for IC50: Cbl-b LCK Ub TR-FRET; for fold-selectivity (Cbl-b over C-cbl) / (fold-selectivity) Cbl-b and C-Cbl Selectivity: ratio C-cbl Lck HTRF IC50 / Cbl-b Lck HTRF IC50. The gist of the method: (§9)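 After the ubiquitination reaction, detection mixture was added and plates incubated 20 min at room temperature before reading. IC50 values were calculated with wells lacking LCK as the low control and DMSO as the high control.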
Sequence of Cbl-b (Q13191 40-426): as above
(In general: TR-FRET usually uses a lanthanide donor and a delayed reading to cut background.)

In test [4] the target is c-Cbl (Homo sapiens (Human), UniProt P22681). Nature of the test: C-Cbl LCK Ub TR-FRET assay (C-cbl Lck HTRF). The class given is biochemical. The gist of the method: as §9
Sequence of c-Cbl (P22681 47-435): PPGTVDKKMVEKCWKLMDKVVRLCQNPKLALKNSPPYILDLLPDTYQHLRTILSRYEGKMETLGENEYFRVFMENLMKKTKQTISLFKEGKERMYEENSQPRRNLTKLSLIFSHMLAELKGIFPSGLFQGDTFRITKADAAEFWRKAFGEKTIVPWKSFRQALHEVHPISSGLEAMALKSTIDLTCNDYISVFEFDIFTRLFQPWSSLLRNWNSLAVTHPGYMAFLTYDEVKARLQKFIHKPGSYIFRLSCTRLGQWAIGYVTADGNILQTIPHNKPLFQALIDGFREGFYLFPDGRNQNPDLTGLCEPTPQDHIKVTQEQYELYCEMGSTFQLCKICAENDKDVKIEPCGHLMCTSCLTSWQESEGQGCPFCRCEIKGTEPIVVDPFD

Sequence of c-Cbl (residues 47-435) (P22681 47-435): as above

A word on the Kd: it is a measure of binding affinity in units of concentration. As to `Cn1cnnc1C1(c2cccc(N3Cc4c(cc(CNC5(C)CCC5)cc4C(F)(F)F)C3=O)c2)CC2(CCC2)C1`, the Kd in test [1] turned out to be 20 nM. In test [2], this compound registered a Fold of selectivity of 9.5× and a dissociation constant Kd of 2.1 nM.

`CC(C)[C@H]1CN(C)CCN1Cc1cc2c(c(C(F)(F)F)c1)CN(c1cccc(C3(c4nncn4C)CC4(COC4)C3)c1)C2=O` showed a Kd in test [1] of 78 nM. Moreover, in test [2], the Fold of selectivity worked out at 14× and the Kd stood at 5.7 nM.

The compound “2-(3-(2-(4-methyl-4H-1,2,4-triazol-3-yl)-6-oxospiro[3.3]heptan-2-yl)phenyl)-6-(((1-methylcyclobutyl)amino)methyl)-4-(trifluoromethyl)isoindolin-1-one [Compound 92]” came in with a Kd in test [1] of 24 nM. In test [2], this compound gave a Fold of selectivity of 6.4× and a dissociation constant (Kd) of 3.4 nM.

Take “2-(3-(3,3-dimethyl-1-(4-methyl-4H-1,2,4-triazol-3-yl)cyclobutyl)phenyl)-6-(((1-methylcyclobutyl)amino)methyl)-4-(trifluoromethyl)-isoindolin-1-one [Compound 39]”: the Kd in test [1] is 16 nM; in test [2] it was 2.3 nM. Besides, in test [2], the Fold of selectivity turned out to be 6.6×.

In the case of “2-(3-(6-hydroxy-2-(4-methyl-4H-1,2,4-triazol-3-yl)spiro[3.3]heptan-2-yl)phenyl)-6-(((1-methylcyclobutyl)amino)methyl)-4-(trifluoromethyl)isoindolin-1-one [Compound 93]”, in test [1], the Kd came out at 7.5 nM. In test [2], this compound returned a Fold of selectivity of 7.5× and a Kd of 1 nM.

In the case of “2-(3-((1r,3r)-3-fluoro-1-(4-methyl-4H-1,2,4-triazol-3-yl)cyclobutyl)phenyl)-6-(((1-methylcyclobutyl)amino)methyl)-4-(trifluoromethyl)isoindolin-1-one [Compound 36]”, the equilibrium dissociation constant (Kd) in test [1] is 170 nM. Moreover, in test [2], the Fold of selectivity is recorded as 2.8× and the affinity, expressed as Kd, was 59 nM.

Broadly, the IC50 is the midpoint of a concentration-inhibition curve. A lower IC50 goes with greater potency. On to `Cn1cnnc1C(c1cccc(N2Cc3c(cc(CNC4(C)CCC4)cc3C(F)(F)F)C2=O)c1)C1CC(F)(F)C1` (racemic) [Compound 145, 2-(3-((3,3-difluorocyclobutyl)(4-methyl-4H-1,2,4-triazol-3-yl)methyl)phenyl)-6-(((1-methylcyclobutyl)amino)methyl)-4-(trifluoromethyl)isoindolin-1-one], for which the concentration for half-maximal inhibition (IC50) in test [3] amounted to 76 nM; in test [4], 180 nM. The “fold-selectivity (Cbl-b over C-cbl)” value in test [3] is given as 2.4x. The results for the Kd in test [1] and in test [2] were 290 nM and 19 nM, respectively. The Fold of selectivity in test [2] came to 14×.

In the case of `Cn1cnnc1[C@@](O)(c1cccc(N2Cc3c(cc(CNC4(C)CCC4)cc3C(F)(F)F)C2=O)c1)C1CCC1` (single isomer, unassigned) [Compound 2], the IC50 in test [3] was 16 nM; in test [4], 24 nM. In addition, the “fold-selectivity (Cbl-b over C-cbl)” value in test [3] is recorded as “(1.5x)”. Further, the results for the Kd in test [1] and in test [2] were 29 nM and 2.3 nM, respectively. In test [2], this compound showed a Fold of selectivity of 13×.

As for `CO[C@H]1C[C@H]([C@@H](c2cccc(N3Cc4c(cc(CN5CCN(C)C[C@@H]5C(C)C)cc4C(F)(F)F)C3=O)c2)c2nncn2C)C1` (single isomer, unassigned) [Compound 12], the values for the 50% inhibitory concentration (IC50) in test [3] and in test [4] were 12 nM and 18 nM, respectively. Besides, in test [3], the “fold-selectivity (Cbl-b over C-cbl)” value was “(1.5x)”. Moreover, the Kd in test [1] was 12 nM; in test [2] it was 2.5 nM. Besides, in test [2], the Fold of selectivity turned out to be 5×.

Take `CC(C)[C@@](O)(c1cccc(N2Cc3c(cc(CNC4(C)CCC4)cc3C(F)(F)F)C2=O)c1)c1nncn1C` [Compound 309, (R)-2-(3-(1-hydroxy-2-methyl-1-(4-methyl-4H-1,2,4-triazol-3-yl)propyl)phenyl)-6-(((1-methylcyclobutyl)amino)methyl)-4-(trifluoromethyl)isoindolin-1-one]: in test [3], the IC50 was found to be 5300 nM and the “fold-selectivity (Cbl-b over C-cbl)” value was 3.8x. The compound further registered an IC50 in test [4] of 20000 nM.

On to `CC[C@H](NC1(C)CCC1)c1cc2c(c(C(F)(F)F)c1)CN(c1cccc([C@@H](c3nncn3C)C3COC3)c1)C2=O` [Compound 315, 2-(3-((S)-(4-methyl-4H-1,2,4-triazol-3-yl)(oxetan-3-yl)methyl)phenyl)-6-((S)-1-((1-methylcyclobutyl)amino)propyl)-4-(trifluoromethyl)isoindolin-1-one], for which, in test [3], half-maximal inhibition (IC50) required 6800 nM and the “fold-selectivity (Cbl-b over C-cbl)” value came to 2.0x. In test [4], this compound gave an IC50 of 20000 nM.

Take `Cn1cnnc1[C@]1(c2cccc(N3Cc4c(cc(CNC5(C)CCC5)cc4C(F)(F)F)C3=O)c2)C[C@@H](S(C)(=O)=O)C1` [Compound 325, 2-(3-((1r,3r)-1-(4-methyl-4H-1,2,4-triazol-3-yl)-3-(methylsulfonyl)cyclobutyl)phenyl)-6-(((1-methylcyclobutyl)amino)methyl)-4-(trifluoromethyl)isoindolin-1-one]: the IC50 in test [3] worked out at 11000 nM; in test [4] it was 20000 nM. Besides, the “fold-selectivity (Cbl-b over C-cbl)” value in test [3] is listed as 1.9x.

For `Cn1cnnc1[C@]1(c2cccc(N3Cc4c(cc(CNC5(C)CCC5)cc4C(F)(F)F)C3=O)c2)C[C@H](S(C)(=O)=O)C1` [Compound 326, 2-(3-((1s,3s)-1-(4-methyl-4H-1,2,4-triazol-3-yl)-3-(methylsulfonyl)cyclobutyl)phenyl)-6-(((1-methylcyclobutyl)amino)methyl)-4-(trifluoromethyl)isoindolin-1-one], the IC50 in test [3] came out at 16000 nM; in test [4], 20000 nM. For the same compound, in test [3], the “fold-selectivity (Cbl-b over C-cbl)” value is recorded as 1.2x.

As to `Cn1cnnc1[C@]1(c2cccc(N3Cc4c(cc(CNC5(C)CCC5)cc4C(F)(F)F)C3=O)c2)C[C@H](OC(F)(F)F)C1` [Compound 350, 2-(3-((1s,3s)-1-(4-methyl-4H-1,2,4-triazol-3-yl)-3-(trifluoromethoxy)cyclobutyl)phenyl)-6-(((1 methylcyclobutyl)amino)methyl)-4-(trifluoromethyl)isoindolin-1-one], the IC50 came to 16 nM in test [3] and 77 nM in test [4]. For the same compound, the “fold-selectivity (Cbl-b over C-cbl)” value in test [3] came to 4.8x.

With `CO[C@H]1C[C@](c2cccc(N3Cc4c(cc(CN5CCCCC5)cc4C(F)(F)F)C3=O)c2)(c2nncn2C)C1` [Compound 420, 2-(3-((1r,3r)-3-methoxy-1-(4-methyl-4H-1,2,4-triazol-3-yl)cyclobutyl)phenyl)-6-(piperidin-1-ylmethyl)-4-(trifluoromethyl)isoindolin-1-one], the IC50 in test [3] (Example 121) came out at 100 nM; in test [4] it was 720 nM. Further, the “(fold-selectivity) Cbl-b and C-Cbl Selectivity” value in test [3] amounted to 7.2x.

Take `CO[C@H]1C[C@](c2cccc(N3Cc4c(cc(CN5CCC6(CC5)CC(O)C6)cc4C(F)(F)F)C3=O)c2)(c2nncn2C)C1` [Compound 424, 6-((2-hydroxy-7-azaspiro[3.5]nonan-7-yl)methyl)-2-(3-((1r,3r)-3-methoxy-1-(4-methyl-4H-1,2,4-triazol-3-yl)cyclobutyl)phenyl)-4-(trifluoromethyl)isoindolin-1-one]: the figures for the IC50 in test [3] (Example 121) and in test [4] were 230 nM and 1500 nM, respectively. Also, in test [3], the “(fold-selectivity) Cbl-b and C-Cbl Selectivity” value was 6.5x.

`C[C@@H](NC1(C)CCC1)c1cc2c(c(C(F)(F)F)c1)CN(c1cccc([C@@H](c3nncn3C)C3COC3)c1)C2=O` [Compound 443, 2-(3-((S)-(4-methyl-4H-1,2,4-triazol-3-yl)(oxetan-3-yl)methyl)phenyl)-6-((R)-1-((1-methylcyclobutyl)amino)ethyl)-4-(trifluoromethyl)isoindolin-1-one]: the IC50 in test [3] (Example 121) was 3300 nM; in test [4], 5700 nM. The “(fold-selectivity) Cbl-b and C-Cbl Selectivity” value in test [3] came out at 1.7x.

For the compound `Cn1cnnc1[C@H](c1cccc(N2Cc3c(cc(CNC4(C)CCC4)cc3C(F)F)C2=O)c1)C1CC(F)C1` (stereo partly drawn) [Compound 460, 4-(difluoromethyl)-2-(3-((S)-((1r,3S)-3-fluorocyclobutyl)(4-methyl-4H-1,2,4-triazol-3-yl)methyl)phenyl)-6-(((1-methylcyclobutyl)amino)methyl)isoindolin-1-one], the IC50 in test [3] (Example 121) worked out at 610 nM; in test [4], 3900 nM. For the same compound, the “(fold-selectivity) Cbl-b and C-Cbl Selectivity” value in test [3] worked out at 6.4x.

Take `CO[C@H]1C[C@](c2cccc(N3Cc4c(cc(CNC5(C)COC5)cc4C(F)(F)F)C3=O)c2)(c2nncn2C)C1` [Compound 479, 2-(3-((1r,3r)-3-methoxy-1-(4-methyl-4H-1,2,4-triazol-3-yl)cyclobutyl)phenyl)-6-(((3-methyloxetan-3-yl)amino)methyl)-4-(trifluoromethyl)isoindolin-1-one]: the IC50 in test [3] (Example 121) amounted to 29 nM; in test [4] it was 250 nM. The “(fold-selectivity) Cbl-b and C-Cbl Selectivity” value in test [3] came out at 8.6x.

These data come from patent publication US12187709B2 (Genentech, Inc., priority 2021, dated 2025).
